# Biological target: T1, recombinant human mPGES-1 (Homo sapiens, UniProt O14684)
# T1 construct: made in house; host or cells: Rosetta E. coli (microsomal/membrane fraction)
# T1 sequence (O14684 1-152): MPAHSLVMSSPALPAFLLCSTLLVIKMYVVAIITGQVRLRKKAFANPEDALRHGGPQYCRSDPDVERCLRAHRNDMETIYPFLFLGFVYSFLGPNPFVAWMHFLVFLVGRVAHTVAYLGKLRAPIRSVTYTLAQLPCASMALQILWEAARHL
# Experiment: mPGES-1 inhibition test (microsomes, PGH2 substrate, HTRF detection of PGE2)
# Format: biochemical
# Conditions: inhibition of mPGES-1 at 10 μM
# Summary of the method: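 PGE2 formed from PGH2 in one minute by E. coli-expressed microsomal enzyme (pH 7.4, 2.5 mM GSH) was measured by competitive HTRF against a synthetic PGE2 standard curve. Compounds were preincubated 25 min at room temperature.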
row,inhibition at 10 µM [%],SMILES
1,93,"O=C(Nc1ccccc1)c1ccc2[nH]c(Nc3ccccc3Cl)nc2c1 [Example 9, 2-(2-Chloro-phenylamino)-1H-benzimidazole-5-carboxylic acid-phenylamide]"
2,92,"O=C(NC1CCC2(CC1)CC2)c1cc2nc(Nc3c(Cl)ccc(Cl)c3F)[nH]c2cc1F [Example 608, 2-(3,6-Dichloro-2-fluoro-phenylamino)-N-(spiro[2.5]oct-6-yl)-6-fluoro-1H-benzimidazole-5-carboxamide]"
3,100,"CCCCCNC(=O)c1cc2nc(Nc3c(Cl)cccc3Cl)n(C)c2cc1F [Example 391, 2-(2,6-Dichlorophenylamino)-6-fluoro-1-methyl-N-pentyl-1H-benzimidazole-5-carboxamide]"
4,80,"Cc1cc(C)nc(NC(=O)c2ccc3[nH]c(Nc4ccccc4C(F)(F)F)nc3c2)c1 [Example 118, 2-(2-Trifluoromethyl-phenylamino)-1H-benzimidazole-5-carboxylic acid (4,6-dimethyl-pyridin-2-yl)-amide]"
5,100,"COc1cc2[nH]c(Nc3c(Cl)cccc3Cl)nc2cc1C(=O)N[C@H]1CC[C@H](C(F)(F)F)CC1 [Example 376, 2-(2,6-Dichlorophenylamino)-6-methoxy-N-((1r,4r)-4-trifluoromethyl-cyclohexyl)-1H-benzimidazole-5-carboxamide]"
6,100,O=C(Nc1ccc(Br)cc1)c1ccc2[nH]c(Nc3c(F)cccc3Cl)nc2c1 [compound 334]
7,98,"Cn1c(Nc2c(Cl)cccc2Cl)nc2cc(C(=O)Nc3cc(Cl)ccn3)cc(Br)c21 [Example 492, 7-Bromo-N-(4-chloropyridin-2-yl)-2-(2,6-dichlorophenylamino)-1-methyl-1H-benzimidazole-5-carboxamide]"
8,100,"Cn1c(Nc2c(F)cccc2Cl)nc2cc(C(=O)N[C@H]3CC[C@H](C(F)F)CC3)c(F)cc21 [Example 476, 2-(2-Chloro-6-fluorophenylamino)-N-((1r,4r)-4-(difluoromethyl)cyclohexyl)-6-fluoro-1-methyl-1H-benzimidazole-5-carboxamide]"
9,71,"CCNC(=O)c1cc(Br)c2c(c1)nc(Nc1c(Cl)cccc1Cl)n2C [Example 352, 7-Bromo-2-(2,6-dichloro-phenylamino)-1-methyl-1H-benzimidazole-5-carboxylic acid ethylamide]"
10,100,"Cn1c(Nc2c(Cl)cccc2Cl)nc2cc(C(=O)NC3CCC(C(F)(F)F)CC3)ccc21 (centres unmarked) [Example 256, 2-(2,6-Dichloro-phenylamino)-1-methyl-1H-benzimidazole-5-carboxylic acid (4-trifluoromethyl-cyclohexyl)-amide]"
11,61,"Cn1c(Nc2c(Cl)cccc2Cl)nc2cc(C(=O)NCc3ccncc3)ccc21 [Example 262, 2-(2,6-Dichloro-phenylamino)-1-methyl-1H-benzimidazole-5-carboxylic acid (2-pyridin-4-yl-methyl)-amide]"
12,92,"Cn1c(Nc2c(Cl)ccc(Cl)c2F)nc2cc(C(=O)N[C@H]3CC[C@H](C(F)(F)F)CC3)c(F)cc21 [Example 601, 2-(3,6-Dichloro-2-fluoro-phenylamino)-6-fluoro-N-(trans-4-trifluoromethyl-cyclohex-1-yl)-1-methyl-1H-benzimidazole-5-carboxamide]"
13,100,COc1cc2c(cc1C(=O)NCc1ncccc1Cl)nc(Nc1c(Cl)cccc1Cl)n2C [Example 631]
14,100,CC(C)[C@H]1CC[C@H](NC(=O)c2cc3nc(Nc4c(F)cccc4Cl)n(C)c3cc2F)CC1 [Example 368]
15,99,"Cn1c(Nc2c(Cl)cccc2Cl)nc2cc(C(=O)Nc3ccc(Cl)cn3)ccc21 [Example 494, N-(5-Chloropyridin-2-yl)-2-(2,6-dichlorophenylamino)-1-methyl-1H-benzimidazole-5-carboxamide]"
16,96,"CC1CCC(NC(=O)c2ccc3[nH]c(Nc4c(Cl)cccc4Cl)nc3c2)CC1 (centres unmarked) [Example 215, 2-(2,6-Dichloro-phenylamino)-1H-benzimidazole-5-carboxylic acid (4-methyl-cyclohexyl)-amide]"
17,93,"Cc1ccc(NC(=O)c2ccc3[nH]c(Nc4c(Cl)cccc4Cl)nc3c2)nc1 [Example 321, 2-(2,6-Dichloro-phenylamino)-1H-benzimidazole-5-carboxylic acid (5-methyl-pyridin-2-yl)-amide]"
18,100,"COc1cc2[nH]c(Nc3c(Cl)cc(F)cc3Cl)nc2cc1C(=O)NCc1ncccc1C(F)(F)F [Example 580, 2-(2,6-Dichloro-4-fluoro-phenylamino)-6-methoxy-N-((3-trifluoromethyl-pyridin-2-yl)-methyl)-1H-benzimidazole-5-carboxamide]"

row,inhibition at 10 µM [%],SMILES
1,97,"O=C(Nc1ccc(Br)cc1)c1ccc2[nH]c(Nc3ccccc3Br)nc2c1 [Example 279, 2-(2-Bromo-phenylamino)-1H-benzimidazole-5-carboxylic acid (4-bromo-phenyl)-amide]"
2,100,"O=C(NCC1CCCCC1)c1ccc2[nH]c(Nc3c(Cl)cccc3Cl)nc2c1 [Example 288, 2-(2,6-Dichloro-phenylamino)-1H-benzimidazole-5-carboxylic acid cyclohexylmethyl-amide]"
3,92,"COc1ccc(NC(=O)c2ccc3nc(Nc4c(Cl)cccc4Cl)[nH]c3c2)nc1 [Example 195, 2-(2,6-Dichloro-phenylamino)-3H-benzimidazole-5-carboxylic acid (5-methoxy-pyridin-2-yl)-amide]"
4,70,"Cn1c(Nc2c(Cl)cccc2Cl)nc2cc(C(=O)NCc3cn4cc(Cl)ccc4n3)c(F)cc21 [Example 564, N-((6-Chloroimidazo[1,2-a]pyridin-2-yl)methyl)-2-(2,6-dichlorophenylamino)-6-fluoro-1-methyl-1H-benzimidazole-5-carboxamide]"
5,98,"COc1cccc(NC(=O)c2ccc3nc(Nc4c(Cl)cccc4Cl)[nH]c3c2)n1 [Example 194, 2-(2,6-Dichloro-phenylamino)-3H-benzimidazole-5-carboxylic acid (6-methoxy-pyridin-2-yl)-amide]"
6,80,"O=C(NC1CCC(F)(F)CC1)c1ccc2[nH]c(Nc3c(Cl)cccc3Cl)nc2c1 [Example 225, 2-(2,6-Dichloro-phenylamino)-1H-benzimidazole-5-carboxylic acid (4,4-difluoro-cyclohexyl)-amide]"
7,99,"O=C(NC1CCC(C(F)(F)F)CC1)c1ccc2[nH]c(Nc3c(Cl)cccc3Cl)nc2c1 (centres unmarked) [Example 230, 2-(2,6-Dichloro-phenylamino)-1H-benzimidazole-5-carboxylic acid (4-trifluoromethyl-cyclohexyl)-amide]"
8,98,"Cc1cnc(NC(=O)c2cc3nc(Nc4c(Cl)cccc4Cl)n(C)c3cc2F)cc1Cl [Example 372, N-(4-Chloro-5-methylpyridin-2yl)-2-(2,6-dichlorophenylamino)-6-fluoro-1-methyl-1H-benzimidazole-5-carboxamide]"
9,100,"Cn1c(Nc2c(Cl)cccc2Cl)nc2cc(C(=O)NC3CCC4(CC3)CC4)c(F)cc21 [Example 419, 2-(2,6-Dichlorophenylamino)-6-fluoro-1-methyl-N-(spiro[2.5]octan-6-yl)-1H-benzimidazole-5-carboxamide]"
10,92,"Cn1c(Nc2c(Cl)cccc2Cl)nc2cc(C(=O)NCc3cnccc3C(F)(F)F)c(F)cc21 [Example 126, 2-(2,6-Dichloro-phenylamino)-6-fluoro-1-methyl-1H-benzimidazole-5-carboxylic acid (4-trifluoromethyl-pyridin-3-ylmethyl)-amide]"
11,81,"COc1ccnc(CNC(=O)c2cc3nc(Nc4c(Cl)cccc4Cl)n(C)c3cc2F)c1 [Example 569, 2-(2,6-Dichlorophenylamino)-6-fluoro-N-((4-methoxypyridin-2-yl)methyl)-1-methyl-1H-benzimidazole-5-carboxamide]"
12,93,"O=C(Nc1cc(Cl)ccn1)c1ccc2c(c1)nc(Nc1c(Cl)cccc1Cl)n2CCCO [Example 263, 2-(2,6-Dichloro-phenylamino)-1-(3-hydroxy-propyl)-1H-benzimidazole-5-carboxylic acid (4-chloro-pyridin-2-yl)-amide]"
13,80,"Cc1ccnc(CNC(=O)c2cc3nc(Nc4c(Cl)cccc4Cl)n(C)c3cc2F)c1 [Example 534, 2-(2,6-Dichlorophenylamino)-6-fluoro-1-methyl-N-((4-methylpyridin-2-yl)methyl)-1H-benzimidazole-5-carboxamide]"
14,100,"CN(C)c1cccc(Cl)c1Nc1nc2cc(C(=O)Nc3ccc(Br)cc3)ccc2n1C [Example 499, N-(4-Bromophenyl)-2-(2-chloro-6-(dimethylamino)phenylamino)-1-methyl-1H-benzimidazole-5-carboxamide]"
15,100,"CCOc1cc2[nH]c(Nc3c(Cl)ccc(Cl)c3F)nc2cc1C(=O)Nc1ccc(Br)cc1 [Example 604, 2-(3,6-Dichloro-2-fluoro-phenylamino)-N-(4-bromo-phenyl)-6-ethoxy-1H-benzimidazole-5-carboxamide]"
16,100,"COc1cc2[nH]c(Nc3c(Cl)cccc3Cl)nc2cc1C(=O)Nc1ccc(Br)cc1 [Example 371, N-(4-Bromophenyl)-2-(2,6-dichlorophenylamino)-6-methoxy-1H-benzimidazole-5-carboxamide]"
17,80,"CC(C)(C)CNC(=O)c1ccc2[nH]c(Nc3c(Cl)cccc3Cl)nc2c1 [Example 140, 2-(2,6-Dichloro-phenylamino)-1H-benzimidazole-5-carboxylic acid (2,2-dimethyl-propyl)-amide]"

# Reference: US8916599B2, “1H-benz imidazole-5-carboxamides as anti-inflammatory agents” (Orexo AB, priority 2008, dated 2014)
